We go through four molecules from patent US20190004070A9 (JNC CORPORATION, priority 2012, published 2019).

Entries after “also recorded” stand apart in the source; their conditions may differ.

For assay [1], the system named is human platelet rich plasma. As to the kind of experiment: Agonist-induced platelet aggregation in normal and aspirinized PRP, PAP 8E platelet aggregometer (Example 1). The following applies: for ability to detect the drug in the presence of aspirin: aspirinized PRP, synthetic collagen 8-64 ng/mL; for effect on biological collagen-induced aggregation: Bio/Data and Chrono Log biological collagen; for effect on Bio/Data collagen-induced aggregation: Bio/Data collagen 190 μg/mL; for effect on arachidonic acid-induced aggregation: arachidonic acid 500 μg/mL; for antiplatelet effect in synthetic collagen-induced aggregation at lower concentrations: synthetic collagen 32 ng/mL and lower (32, 16, 8 ng/mL); for effect on 64 ng/mL synthetic collagen-induced aggregation: synthetic collagen 64 ng/mL. The class given is cell-based. On the procedure:
ADP was obtained from Bio/Data Corporation, Horsham, Pa. Each vial was reconstituted with 1 mL of deionized water to make a 100 μM working solution. The final concentration of ADP in the aggregation cuvette was 10 μM.
Arachidonic acid was obtained from Bio/Data Corporation, Horsham, Pa. Each vial was reconstituted with 0.5 mL deionized water to make a 5 mg/mL working solution. The final concentration of arachidonic acid in the aggregation cuvette was 500 μg/mL.
Biological Collagen was obtained from Bio/Data Corporation, Horsham, Pa. Each vial was reconstituted with 0.5 mL deionized water to make a 1.9 mg/mL working solution. The final concentration of Bio/Data collagen in the aggregation cuvette was 190 μg/mL.
Biological Collagen was obtained from Chrono Log Corporation, Havertown, Pa. as a 1 mg/mL solution. A working solution of 100 μg/mL was made by dilution with physiologic saline. The final concentration of Chrono Log collagen in the aggregation cuvette was 10 μg/mL.
Synthetic collagen was provided by JNC Corporation, Yokohama, Japan at working concentrations of 80, 160, 320 and 640 ng/mL. The final concentrations of synthetic collagen in the aggregation cuvette were 64, 32, 16 and 8 ng/mL.
Approval for the collection of whole blood from healthy human volunteers was granted from the Institutional Review Board of the Health Sciences Division of Loyola University Chicago. Whole blood was drawn using a double syringe technique from the antecubital vein and anticoagulated by the addition of 1 part 3.2% sodium citrate to (9 parts blood to 1 part citrate). Citrated blood was centrifuged at 80×g at room temperature for 15 minutes to make platelet rich plasma (PRP). Supernatant PRP was collected and kept at room temperature in capped tubes. The remaining citrated blood was recentrifuged at 1,100×g for 15 minutes to make platelet poor plasma (PPP). The platelet count of the PRP was determined using an ICHOR II Analyzer, Helena Laboratories, Beaumont, Tex. Platelet count in the PRP was adjusted to 250,000-300,000/μl by the addition of homologous PPP.
Six blood donors were used for this study. Each was drawn on separate days for the ‘non-aspirinized’ and ‘aspirinized’ portions of the protocol. For the ‘non-aspirinized’ portion of the protocol, one donor ([…]) was excluded from the final analysis as the aggregation responses were markedly different from that of the other 5 donors.
Platelet aggregation was measured using a PAP 8E platelet aggregometer (Bio/Data). Each well was blanked using PPP. 25 μl of saline or antiplatelet drug and 200 μl of PRP were added to cuvettes containing magnetic stir bars and incubated for three minutes to equilibrate the sample to 37° C. 25 μl of agonist was added to each cuvette and the aggregation profile was monitored until a plateau was achieved. Results were tabulated in terms of maximal aggregation level. Under some reaction conditions, reversible aggregation was observed. This was most commonly observed with ADP and arachidonic acid-induced aggregation in the presence of ticagrelor or cilostazol. Final aggregation levels were also tabulated.

The test system of assay [2] is PRP samples of healthy donors. The experiment in a line: LTAAs using synthetic collagen with anti-platelet medication added to the PRP sample (Example 2). Format: cell-based. The note with it: synthetic collagen 12.5, 25, 50, 100 ng/mL. On the procedure: Two healthy donors supplied the PRP samples. A panel of four different synthetic collagen concentrations were tested (12.5 ng/mL, 25 ng/mL, 50 ng/mL and 100 ng/mL Abciximab was added to the each of the four panels of different synthetic collagen concentrations. In one panel, saline was added as the control to each of the four synthetic collagen concentrations. In the second panel, 12.5 μg/mL (micrograms/mL) of abciximab was added to each of the four synthetic collagen concentrations. In a third panel, 25 μg/mL of abciximab was added to each of the four synthetic collagen concentrations. In a fourth panel, 50 μg/mL of abciximab was added to each of the four synthetic collagen concentrations. LTAAs were run for each and the PA, PS, SA, SS AUC, LP, DA, MA and FA was measured for each. The tests were run on each of the donors' samples.
Two healthy donors supplied the PRP samples. […] LTAAs were run for each and the PA, PS, SA, SS AUC, LP, DA, MA and FA was measured for each. […]

Another assay deals with platelet aggregation. The following applies: Aspirin doses greater than 100 mg; cited from earlier work.
[3] abbreviates: non-aspirinized plasma, ADP 10 μM.
[4] abbreviates: non-aspirinized plasma, Chrono Log collagen 10 μg/mL.

Regarding `O=C1CCc2cc(OCCCCc3nnnn3C3CCCCC3)ccc2N1` [cilostazol], the “ability to detect the drug in the presence of aspirin” value (“ability to detect the drug” below) in assay [1] is given as “negated the ability to detect cilostazol; also recorded: affected the ability”. In addition, in assay [1] (setting [3]), the “effect on ADP-induced aggregation” value was “minimally affected; also recorded: weaker, concentration-dependent inhibition”. In assay [1] (non-aspirinized plasma), the “effect on biological collagen-induced aggregation” value is on record as “unaffected”, the “effect on Bio/Data collagen-induced aggregation” value was “did not inhibit”, the “effect on arachidonic acid-induced aggregation” value is “strongly inhibited” and the “antiplatelet effect in synthetic collagen-induced aggregation at lower concentrations” value (“antiplatelet effect … at lower concentrations” below) is recorded as “could be observed; also recorded: readily apparent”. Besides, the “effect on 64 ng/mL synthetic collagen-induced aggregation” value in assay [1] (non-aspirinized plasma) was “did not inhibit; also recorded: minimal effect”. Further, the “effect on Chrono Log collagen-induced aggregation” value in assay [1] (setting [4]) is reported as “did not inhibit”.

As for `CC(=O)Oc1ccccc1C(=O)O` [aspirin, 2-acetyloxybenzoic acid], the “effect of aspirin on ADP-induced aggregation” value in assay [1] (10 μM ADP) is “minimally affected”. Besides, in assay [1] (10 μg/mL Chrono Log collagen), the “effect of aspirin on Chrono Log collagen-induced aggregation” value is given as “did not inhibit; also recorded: not inhibited”. In addition, the “effect of aspirin on Bio/Data collagen-induced aggregation” value in assay [1] (0.19 mg/mL Bio/Data collagen) is listed as “minimally affected; also recorded: not inhibited”. In addition, the “effect of aspirin on synthetic collagen-induced aggregation” value in assay [1] (all synthetic collagen concentrations tested (8-64 ng/mL)) is given as “lower levels of aggregation; also recorded: higher sensitivity to aspirin”. Also, in assay [1] (aspirin taken orally <48 hours before draw or 100 μM in vitro, no other drug), the “arachidonic acid-induced aggregation in aspirinized plasma” value is given as under 20%. Also, in assay [1] (aspirin taken orally or 100 μM in vitro), the “response to arachidonic acid in aspirinized plasma” value is given as “nearly completely blunted”.

For the molecule `CCCSc1nc(N[C@@H]2C[C@H]2c2ccc(F)c(F)c2)c2nnn([C@@H]3C[C@H](OCCO)[C@@H](O)[C@H]3O)c2n1` [ticagrelor, (1S,2S,3R,5S)-3-[7-[[(1R,2S)-2-(3,4-difluorophenyl)cyclopropyl]amino]-5-propylsulfanyltriazolo[4,5-d]pyrimidin-3-yl]-5-(2-hydroxyethoxy)cyclopentane-1,2-diol], the “ability to detect the drug” value in assay [1] is given as “affected the ability; also recorded: can be detected”. In assay [1] (aspirinized plasma), the “anti-platelet effect in 8 ng/mL synthetic collagen-induced aggregation” value was “no longer observed”; the “anti-platelet effect in 16 and 32 ng/mL synthetic collagen-induced aggregation” value is on record as “reduced”; the “anti-platelet effect in arachidonic acid-induced aggregation” value is “no longer observed”. In addition, the “effect of adding aspirin on the drug's ADP-induced aggregation response” value in assay [1] (aspirinized plasma, ADP 10 μM) is reported as “did not affect”. Also, the “effect on ADP-induced aggregation” value in assay [1] (setting [3]) was “strongly inhibited; also recorded: inhibited”. Further, in assay [1] (non-aspirinized plasma), the “effect on biological collagen-induced aggregation” value is on record as “little effect”; the “effect on Bio/Data collagen-induced aggregation” value was “Neither Bio/Data collagen, Chrono Log collagen nor 64 ng/mL synthetic collagen was markedly impacted”; the “effect on arachidonic acid-induced aggregation” value is listed as “inhibited to a similar extent”; the “antiplatelet effect … at lower concentrations” value was “could be identified; also recorded: readily apparent”. In addition, the “effect on 64 ng/mL synthetic collagen-induced aggregation” value in assay [1] (non-aspirinized plasma) is recorded as “Neither Bio/Data collagen, Chrono Log collagen nor 64 ng/mL synthetic collagen was markedly impacted; also recorded: minimal effect”. In addition, the “effect on Chrono Log collagen-induced aggregation” value in assay [1] (setting [4]) was “Neither Bio/Data collagen, Chrono Log collagen nor 64 ng/mL synthetic collagen was markedly impacted”. The “detection of the drug by synthetic collagen LTAA” value in assay [2] is reported as “the assays worked with both”. Besides, the “effect of aspirin dose on ticagrelor's inhibition of platelet aggregation” value in the assay with platelet aggregation is “reduce the ability of ticagrelor to inhibit platelet aggregation”.

B1: abciximab: Immunoglobulin Fragment Fab Fragment Chimeric monoclonal antibody 7E3 (GP IIbIIIa receptor blocker) (antibody, chains of the INN, looked up, V domains shown)
VH: EVQLQQSGTVLARPGASVKMSCEASGYTFTNYWMHWVKQRPGQGLEWIGAIYPGNSDTSYIQKFKGKAKLTAVTSTTSVYMELSSLTNEDSAVYYCTLYDGYYVFAYWGQGTLVTVSA
VL: EIVLTQSPVTLSVTPGDSVSLSCRASRDISNNLHWFQQTSHESPRLLIKYASQSMSGIPSRFSGSGSGTDFTLSINSVETEDFGMYFCQQTNSWPYTFGGGTKLEIK
modifications: Fab
B1: in assay [1] (aspirinized PRP compared with non-aspirinized, Chrono Log collagen 10 μg/mL), the “inhibition of Chrono Log collagen-induced aggregation” value is reported as “stronger inhibition”. Further, the “ability to detect the drug” value in assay [1] is listed as “readily detectable”. For the same molecule, in assay [1] (aspirinized plasma), the “anti-platelet effect in arachidonic acid-induced aggregation” value is reported as “complete inhibition”. In addition, in assay [1] (non-aspirinized plasma), the “concentration at which inhibition of Bio/Data collagen-induced aggregation was observed” value was determined as 5 µg/mL, the “concentration at which inhibition of Chrono Log collagen-induced aggregation was observed” value was 5 μg/mL, the “effect on biological collagen-induced aggregation” value is given as “inhibited” and the “effect on arachidonic acid-induced aggregation” value was “most sensitive; also recorded: inhibited”. Besides, in assay [1] (non-aspirinized plasma), the “antiplatelet effect … at lower concentrations” value is recorded as “most sensitive; also recorded: readily apparent” and the “effect on 64 ng/mL synthetic collagen-induced aggregation” value is “inhibited by abciximab to a comparable degree”. Moreover, the “effect on ADP-induced aggregation” value in assay [1] (setting [3]) is recorded as “inhibited”. Besides, the “inhibition of agonist-induced aggregation” value in assay [1] (non-aspirinized plasma, concentration range tested 1.25-5 μg/mL) is reported as “concentration-dependent inhibition”. Moreover, the “detection of the drug by synthetic collagen LTAA” value in assay [2] is “the assays worked with both”.
